{"source": "the supplement of paper PMC6965134", "assay": "TIMS collisional cross section (CCS, N2) of the lipid ion; higher = larger ion cross section", "settings": "ionization mode: positive, one isomer drawn", "note": "± gives the standard deviation of the averaged measurements."}
{"molecule": "CCCCC/C=C\\C/C=C\\CCCCCCCC(=O)OC[C@@H](COC(=O)CCCCCCCCCCCCCCC)OC(=O)CCCCCCC/C=C\\CCCCCCC", "note": "[TG 16:0_17:1_18:2] (ion (formula + adduct): [C54H98O6+NH4] 1+)", "values": [{"measurement": "TIMS collisional cross section", "setting": "sample type: Liver", "value": 316, "unit": "Å²"}, {"measurement": "TIMS collisional cross section", "setting": "sample type: plasma", "value": 317.8, "unit": "Å²"}]}
{"molecule": "CCCCC/C=C\\C/C=C\\C/C=C\\C/C=C\\CCCC(=O)OC[C@@H](COC(=O)CCCCCCCCCCCCCCC)OC(=O)CCCCCCC/C=C\\CCCCCCC", "note": "[TG 16:0_17:1_20:4] (ion (formula + adduct): [C56H98O6+NH4] 1+)", "values": [{"measurement": "TIMS collisional cross section", "setting": "sample type: HeLa", "value": 321.4, "unit": "Å²"}]}
{"molecule": "CC/C=C\\C/C=C\\C/C=C\\C/C=C\\C/C=C\\CCCCCC(=O)OC[C@@H](COC(=O)CCCCCCCCCCCCCCC)OC(=O)CCCCCCC/C=C\\CCCCCCC", "note": "[TG 16:0_17:1_22:5] (ion (formula + adduct): [C58H100O6+NH4] 1+)", "values": [{"measurement": "TIMS collisional cross section", "setting": "sample type: HeLa", "value": 325.4, "unit": "Å²"}]}
{"molecule": "CC/C=C\\C/C=C\\C/C=C\\C/C=C\\C/C=C\\C/C=C\\CCC(=O)OC[C@@H](COC(=O)CCCCCCCCCCCCCCC)OC(=O)CCCCCCC/C=C\\CCCCCCC", "note": "[TG 16:0_17:1_22:6] (ion (formula + adduct): [C58H98O6+NH4] 1+)", "values": [{"measurement": "TIMS collisional cross section", "setting": "sample type: HeLa", "value": 324.8, "unit": "Å²"}]}
{"molecule": "CCCCCCCCCCCCCCCCCC(=O)OC[C@@H](COC(=O)CCCCCCCCCCCCCCC)OC(=O)CCCCCCCCCCCCCCCCC", "note": "[TG 16:0_18:0_18:0] (ion (formula + adduct): [C55H106O6+NH4] 1+)", "values": [{"measurement": "TIMS collisional cross section", "setting": "sample type: Liver", "value": 326.7, "unit": "Å²"}, {"measurement": "TIMS collisional cross section", "setting": "sample type: plasma", "value": 326.7, "unit": "Å²"}]}
{"molecule": "CCCCCCCC/C=C\\CCCCCCCC(=O)OC[C@@H](COC(=O)CCCCCCCCCCCCCCC)OC(=O)CCCCCCCCCCCCCCCCC", "note": "[TG 16:0_18:0_18:1] (ion (formula + adduct): [C55H104O6+NH4] 1+)", "values": [{"measurement": "TIMS collisional cross section", "setting": "sample type: HeLa", "value": 324.4, "unit": "Å²"}, {"measurement": "TIMS collisional cross section", "setting": "sample type: Liver", "value": "324.5 ± 0.14", "unit": "Å²"}, {"measurement": "TIMS collisional cross section", "setting": "sample type: plasma", "value": "324.45 ± 0.35", "unit": "Å²"}]}
{"molecule": "CCCCCCCCCCCCCCCCCCC(=O)OC[C@@H](COC(=O)CCCCCCCCCCCCCCC)OC(=O)CCCCCCCCCCCCCCCCC", "note": "[TG 16:0_18:0_19:0] (ion (formula + adduct): [C56H108O6+NH4] 1+)", "values": [{"measurement": "TIMS collisional cross section", "setting": "sample type: Liver", "value": 329.3, "unit": "Å²"}, {"measurement": "TIMS collisional cross section", "setting": "sample type: plasma", "value": 329, "unit": "Å²"}]}
{"molecule": "CCCCCCCCCCCCCCCCCCCC(=O)OC[C@@H](COC(=O)CCCCCCCCCCCCCCC)OC(=O)CCCCCCCCCCCCCCCCC", "note": "[TG 16:0_18:0_20:0] (ion (formula + adduct): [C57H110O6+NH4] 1+)", "values": [{"measurement": "TIMS collisional cross section", "setting": "sample type: HeLa", "value": "332.05 ± 0.21", "unit": "Å²"}, {"measurement": "TIMS collisional cross section", "setting": "sample type: plasma", "value": "332.5 ± 0.14", "unit": "Å²"}]}
{"molecule": "CCCCCCCC/C=C\\CCCCCCCCCC(=O)OC[C@@H](COC(=O)CCCCCCCCCCCCCCC)OC(=O)CCCCCCCCCCCCCCCCC", "note": "[TG 16:0_18:0_20:1] (ion (formula + adduct): [C57H108O6+NH4] 1+)", "values": [{"measurement": "TIMS collisional cross section", "setting": "sample type: HeLa", "value": 330.3, "unit": "Å²"}]}
{"molecule": "CCCCCCCCCCCCCCCCCCCCCC(=O)OC[C@@H](COC(=O)CCCCCCCCCCCCCCC)OC(=O)CCCCCCCCCCCCCCCCC", "note": "[TG 16:0_18:0_22:0] (ion (formula + adduct): [C59H114O6+NH4] 1+)", "values": [{"measurement": "TIMS collisional cross section", "setting": "sample type: HeLa", "value": 337.8, "unit": "Å²"}, {"measurement": "TIMS collisional cross section", "setting": "sample type: Liver", "value": 338.3, "unit": "Å²"}, {"measurement": "TIMS collisional cross section", "setting": "sample type: plasma", "value": "337.55 ± 0.21", "unit": "Å²"}]}
{"molecule": "CC/C=C\\C/C=C\\C/C=C\\C/C=C\\C/C=C\\CCCCCC(=O)OC[C@@H](COC(=O)CCCCCCCCCCCCCCC)OC(=O)CCCCCCCCCCCCCCCCC", "note": "[TG 16:0_18:0_22:5] (ion (formula + adduct): [C59H104O6+NH4] 1+)", "values": [{"measurement": "TIMS collisional cross section", "setting": "sample type: HeLa", "value": 330.6, "unit": "Å²"}]}
{"molecule": "CCCCCCCC/C=C\\CCCCCCCC(=O)OC[C@@H](COC(=O)CCCCCCCCCCCCCCC)OC(=O)CCCCCCC/C=C\\CCCCCCCC", "note": "[TG 16:0_18:1_18:1] (ion (formula + adduct): [C55H102O6+NH4] 1+)", "values": [{"measurement": "TIMS collisional cross section", "setting": "sample type: HeLa", "value": 322, "unit": "Å²"}, {"measurement": "TIMS collisional cross section", "setting": "sample type: Liver", "value": 322.4, "unit": "Å²"}, {"measurement": "TIMS collisional cross section", "setting": "sample type: plasma", "value": "322.45 ± 0.21", "unit": "Å²"}]}
